US9051310B2, “Nicotinamide derivative or salt thereof” (FUJIFILM Corporation, priority 2011, dated 2015)

Tests used:
[1] = test system: THP-1 cells (phagocytosis of opsonized Escherichia coli); assay: Antibody-dependent phagocytosis assay; assay type: cell-based; details: Homo sapiens; IFNγ differentiated THP-1 cells, opsonized pHrodo Escherichia coli, 3 hours; read-out: IC50 upon phagocytosis inhibition
Outline: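 Read-out was imaging-based quantification of pHrodo-labeled, antibody-opsonized E. coli taken up by Calcein AM-stained viable cells after 3 h at 37° C. The cells were IFNγ-differentiated THP-1 macrophages (10 ng/ml, 2 days), preincubated with compound for 30 min at room temperature.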

[2] = test system: mouse thrombocytopenia induced by anti-mouse CD41 antibody; assay: Mouse thrombocytopenia model; assay type: in vivo; details: Platelet, female BALB/c mice, 50 mg/kg 1 hour before anti-CD41 antibody, blood sampling 4 hours after antibody, read-out: improvement of platelet count compared with the control group
Procedure: Test compounds were tested to examine effects upon mouse thrombocytopenia. Each test compound (50 mg/kg) was administered to 5- to 7-week-old female BALB/c mice (Charles River Laboratories Japan, Inc.). One hour thereafter, an anti-mouse CD41 ([…]) antibody (SCB) (1 μg (200 μl)) was intravenously administered to each mouse so as to induce thrombocytopenia. Four hours after administration of the anti-CD41 antibody, blood sampling from the postcava was performed. The platelet count was determined using an automated hematology analyzer.

[3] = biological target: T1, glutathione S-transferase (GST)-linked full-length human Syk protein (Homo sapiens, UniProt P43405); assay: Syk enzyme assay; assay type: biochemical; details: 0.83 nM Syk, time-resolved fluorescence; read-out: IC50 of Syk-inhibitory activity
T1 construct: glutathione S-transferase (GST)-linked full-length human Syk protein; purchased Carna Biosciences; host or cells: Baculovirus expression system
Outline: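 Phosphotyrosine on a biotin-peptide substrate (0.5 μM) was read by time-resolved fluorescence at 615 and 665 nm with Eu-anti-pTyr antibody and APC-streptavidin after 1 h EDTA stop.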

[4] = test system: THP-1 cells (TNFα secretion on human IgG-coated plate); assay: TNFα generation assay; assay type: cell-based; details: IFN-γ differentiated THP-1 cells, 7 hours, AlphaLISA, read-out: IC50 of TNFα generation inhibitory activity
Outline: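 Secreted TNFα was measured by AlphaLISA after 7 h of culture on human IgG-coated wells (coating at 10 μg/ml), with 5×10^4 cells/well. Before plating, the cells had been treated with compound for 30 min at room temperature. The cells were macrophage-like THP-1, produced by a 2-day exposure to 10 ng/ml IFN-γ.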

C[C@H](N)[C@@H](CC1CC1)Nc1nc(Nc2ccc3c(c2)c(N(C)C)nn3C)c(C(N)=O)cc1F [Example 2-2, 6-(((2R,3S)-3-amino-1-cyclopropylbutan-2-yl)amino)-2-((3-(dimethylamino)-1-methyl-1H-indazol-5-yl)amino)-5-fluoronicotinamide] was tested, and the IC50 [1] was less than 1 µM, the change in vivo at 50 mg/kg [2] was no less than 50% and the IC50 [3] was less than 0.01 µM.
In the case of Cc1cc(Nc2nc(N[C@H](CC(C)C)[C@H](C)N)c(F)cc2C(N)=O)cnc1C [Example 2-18, 6-(((2S,3R)-2-amino-5-methylhexan-3-yl)amino)-2-((5,6-dimethylpyridin-3-yl)amino)-5-fluoronicotinamide], the IC50 [1] is reported as less than 1 µM, the change in vivo at 50 mg/kg [2] is reported as no less than 50% and the IC50 [4] is reported as 0.065 to 0.13 µM. The IC50 [3] was less than 0.01 µM.
Work on COc1cc(Nc2nc(N[C@H](C3CCC3)[C@H](C)N)c(F)cc2C(N)=O)cc(OC)c1 [Example 2-28] yielded an IC50 [1] of less than 1 µM, a change in vivo at 50 mg/kg [2] of no less than 50% and an IC50 [4] of 0.065 to 0.13 µM. The IC50 [3] was less than 0.01 µM.
For COc1ccc(Nc2nc(N[C@H](C3CC3)[C@H](C)N)c(F)cc2C(N)=O)cc1OC [Example 2-48, 6-(((1R,2S)-2-amino-1-cyclopropylpropyl)amino)-2-((3,4-dimethoxyphenyl)amino)-5-fluoronicotinamide], the IC50 [1] was less than 1 µM, the change in vivo at 50 mg/kg [2] was no less than 50% and the IC50 [4] was 0.065 to 0.13 µM. The IC50 [3] was less than 0.01 µM.
Work on C[C@H](N)[C@H](Nc1nc(Nc2cnc(N3CCOCC3)c(F)c2)c(C(N)=O)cc1F)C1CCC1 [Example 2-77, 6-(((1R,2S)-2-amino-1-cyclobutylpropyl)amino)-5-fluoro-2-((5-fluoro-6-morpholinopyridin-3-yl)amino)nicotinamide] yielded an IC50 [1] of less than 1 µM, a change in vivo at 50 mg/kg [2] of no less than 50% and an IC50 [4] of 0.13 to 0.2 µM. The IC50 [3] was 0.01 to 0.05 µM.
For CCC[C@@H](Nc1nc(Nc2ccc3c(c2)c(N(C)C)nn3C)c(C(N)=O)cc1F)[C@H](C)N [Example 2-87, 6-(((2S,3R)-2-aminohexan-3-yl)amino)-2-((3-(dimethylamino)-1-methyl-1H-indazol-5-yl)amino)-5-fluoronicotinamide], the IC50 [1] was 1 to 3 µM, the change in vivo at 50 mg/kg [2] was no less than 50% and the IC50 [4] was 0.13 to 0.2 µM. It also gave an IC50 [3] of less than 0.01 µM.
With C[C@H](N)[C@H](Nc1nc(Nc2ccc3c(c2)c(N(C)C)nn3C)c(C(N)=O)cc1F)C1CCC1 [Example 2-89, 6-(((1R,2S)-2-amino-1-cyclobutylpropyl)amino)-2-((3-(dimethylamino)-1-methyl-1H-indazol-5-yl)amino)-5-fluoronicotinamide] the IC50 [1] was 1 to 3 µM, the change in vivo at 50 mg/kg [2] was no less than 50% and the IC50 [3] was less than 0.01 µM.
Compound CC[C@H](N)[C@@H](C)Nc1nc(Nc2ccc3c(c2)c(N(C)C)nn3C)c(C(N)=O)cc1F [Example 2-91, 6-(((2R,3S)-3-aminopentan-2-yl)amino)-2-((3-(dimethylamino)-1-methyl-1H-indazol-5-yl)amino)-5-fluoronicotinamide] has an IC50 [1] of 1 to 3 µM, a change in vivo at 50 mg/kg [2] of no less than 50% and an IC50 [4] of 0.13 to 0.2 µM. It also gave an IC50 [3] of 0.01 to 0.05 µM.
In the case of CC[C@H](N)[C@@H](C)Nc1nc(Nc2cccc3c2cnn3CC)c(C(N)=O)cc1F [Example 2-100, 6-(((2R,3S)-3-aminopentan-2-yl)amino)-2-((1-ethyl-1H-indazol-4-yl)amino)-5-fluoronicotinamide], the IC50 [1] is reported as 1 to 3 µM, the change in vivo at 50 mg/kg [2] is reported as no less than 50% and the IC50 [4] is reported as 0.13 to 0.2 µM. It also gave an IC50 [3] of less than 0.01 µM.
For COCCn1nc(OC)c2cc(Nc3nc(N[C@@H]4CCCC[C@@H]4N)c(F)cc3C(N)=O)ccc21 [Example 2-123, 6-(((1R,2S)-2-aminocyclohexyl)amino)-5-fluoro-2-((3-methoxy-1-(2-methoxyethyl)-1H-indazol-5-yl)amino)nicotinamide], the IC50 [1] was less than 1 µM, the change in vivo at 50 mg/kg [2] was no less than 50% and the IC50 [4] was 0.065 to 0.13 µM. It also gave an IC50 [3] of less than 0.01 µM.
With Cc1ncc(Nc2nc(N[C@@H]3CCCC[C@@H]3N)c(F)cc2C(N)=O)cc1F [Example 2-142, 6-(((1R,2S)-2-aminocyclohexyl)amino)-5-fluoro-2-((5-fluoro-6-methylpyridin-3-yl)amino)nicotinamide] the IC50 [1] was less than 1 µM, the change in vivo at 50 mg/kg [2] was no less than 50% and the IC50 [4] was 0.065 to 0.13 µM. For the same compound, the IC50 [3] was 0.01 to 0.05 µM.
For COCCn1nc(OC(F)F)c2cc(Nc3nc(N[C@@H]4CCCC[C@@H]4N)c(F)cc3C(N)=O)ccc21 [Example 2-174, 6-(((1R,2S)-2-aminocyclohexyl)amino)-2-((3-(difluoromethoxy)-1-(2-methoxyethyl)-1H-indazol-5-yl)amino)-5-fluoronicotinamide], the IC50 [1] was less than 1 µM, the change in vivo at 50 mg/kg [2] was no less than 50% and the IC50 [4] was 0.13 to 0.2 µM. The IC50 [3] was less than 0.01 µM.
In the case of C[C@H](N)[C@H](Nc1nc(Nc2cc(F)c3c(c2)c(N(C)C)nn3C)c(C(N)=O)cc1F)C1CC1 [Example 2-188, 6-(((1R,2S)-2-amino-1-cyclopropylpropyl)amino)-2-((3-(dimethylamino)-7-fluoro-1-methyl-1H-indazol-5-yl)amino)-5-fluoronicotinamide], the IC50 [1] is reported as less than 1 µM, the change in vivo at 50 mg/kg [2] is reported as no less than 50% and the IC50 [4] is reported as less than 0.065 µM. For the same compound, the IC50 [3] was less than 0.01 µM.
Compound C[C@H](N)[C@H](Nc1nc(Nc2cc(F)c3c(c2)c(N(C)C)nn3C)c(C(N)=O)cc1F)C1CCC1 [Example 2-192, 6-(((1R,2S)-2-amino-1-cyclobutylpropyl)amino)-2-((3-(dimethylamino)-7-fluoro-1-methyl-1H-indazol-5-yl)amino)-5-fluoronicotinamide] has an IC50 [1] of 1 to 3 µM, a change in vivo at 50 mg/kg [2] of no less than 50% and an IC50 [3] of less than 0.01 µM.
COC[C@@H](Nc1nc(Nc2cc(F)c3c(c2)c(N(C)C)nn3C)c(C(N)=O)cc1F)[C@H](C)N [Example 2-193, 6-(((2S,3S)-3-amino-1-methoxybutan-2-yl)amino)-2-((3-(dimethylamino)-7-fluoro-1-methyl-1H-indazol-5-yl)amino)-5-fluoronicotinamide] gave an IC50 [1] of 1 to 3 µM, a change in vivo at 50 mg/kg [2] of no less than 50% and an IC50 [4] of 0.13 to 0.2 µM. For the same compound, the IC50 [3] was 0.01 to 0.05 µM.
CN(C)c1nn(C)c2c(F)cc(Nc3nc(N[C@@H]4CCOC[C@@H]4N)c(F)cc3C(N)=O)cc12 [Example 2-213, 6-(((3R,4R)-3-aminotetrahydro-2H-pyran-4-yl)amino)-2-((3-(dimethylamino)-7-fluoro-1-methyl-1H-indazol-5-yl)amino)-5-fluoronicotinamide] gave an IC50 [1] of less than 1 µM, a change in vivo at 50 mg/kg [2] of no less than 50% and an IC50 [4] of 0.065 to 0.13 µM. The IC50 [3] was less than 0.01 µM.
CCC[C@@H](Nc1nc(Nc2cnc3c(c2)c(OC)nn3C)c(C(N)=O)cc1F)[C@H](C)N [Example 2-252, 6-(((2S,3R)-2-aminohexan-3-yl)amino)-5-fluoro-2-((3-methoxy-1-methyl-1H-pyrazolo[3,4-b]pyridin-5-yl)amino)nicotinamide] gave an IC50 [1] of less than 1 µM, a change in vivo at 50 mg/kg [2] of no less than 50% and an IC50 [4] of 0.13 to 0.2 µM. The IC50 [3] was less than 0.01 µM.
COCCn1ncc2cc(Nc3nc(N[C@H](C4CC4)[C@H](C)N)c(F)cc3C(N)=O)ccc21 [Example 2-265, 6-(((1R,2S)-2-amino-1-cyclopropylpropyl)amino)-5-fluoro-2-((1-(2-methoxyethyl)-1H-indazol-5-yl)amino)nicotinamide] showed an IC50 [1] of less than 1 µM, a change in vivo at 50 mg/kg [2] of no less than 50% and an IC50 [4] of 0.065 to 0.13 µM. It also gave an IC50 [3] of less than 0.01 µM.
COC[C@@H](Nc1nc(Nc2cc(OC)cc(OC)c2)c(C(N)=O)cc1F)[C@H](C)N [Example 2-267, 6-(((2S,3S)-3-amino-1-methoxybutan-2-yl)amino)-2-((3,5-dimethoxyphenyl)amino)-5-fluoronicotinamide] gave an IC50 [1] of 1 to 3 µM, a change in vivo at 50 mg/kg [2] of no less than 50% and an IC50 [4] of 0.065 to 0.13 µM. It also gave an IC50 [3] of less than 0.01 µM.
For COCCn1ncc2c(Nc3nc(N[C@@H]4CCOC[C@@H]4N)c(F)cc3C(N)=O)cccc21 [Example 2-331, 6-(((3R,4R)-3-aminotetrahydro-2H-pyran-4-yl)amino)-5-fluoro-2-((1-(2-methoxyethyl)-1H-indazol-4-yl)amino)nicotinamide], the IC50 [1] was 1 to 3 µM, the change in vivo at 50 mg/kg [2] was no less than 50% and the IC50 [3] was less than 0.01 µM.
With COCCn1nc(OC(F)F)c2cc(Nc3nc(N[C@@H]4CCOC[C@@H]4N)c(F)cc3C(N)=O)ccc21 [Example 2-352, 6-(((3R,4R)-3-aminotetrahydro-2H-pyran-4-yl)amino)-2-((3-(difluoromethoxy)-1-(2-methoxyethyl)-1H-indazol-5-yl)amino)-5-fluoronicotinamide] the IC50 [1] was less than 1 µM, the change in vivo at 50 mg/kg [2] was no less than 50% and the IC50 [3] was less than 0.01 µM.
Compound CC[C@H](N)[C@H](Nc1nc(Nc2cnc(C)c(-n3nccn3)c2)c(C(N)=O)cc1F)C1CC1 [Example 2-358, 6-(((1R,2S)-2-amino-1-cyclopropylbutyl)amino)-5-fluoro-2-((6-methyl-5-(2H-1,2,3-triazol-2-yl)pyridin-3-yl)amino)nicotinamide] has an IC50 [1] of 1 to 3 µM, a change in vivo at 50 mg/kg [2] of no less than 50% and an IC50 [3] of 0.01 to 0.05 µM.
